{"source": "patent US5635510A", "about": "“Substituted pyrrolidin-3-yl-alkyl-piperidines” (Merrell Pharmaceuticals Inc., priority 1994, dated 1997)", "test_system": "NK1 and NK2 receptors", "test": "Modulation of respiratory effects produced by capsaicin aerosol in conscious guinea pigs", "type": "in vivo, guinea pig", "conditions": "for dyspnea onset / maximum pressure increase: capsaicin aerosol; for dyspnea onset / maximum pressure increase / SRE number (coughs/gasps): mean and SEM; for SRE number (coughs/gasps): during 19 min capsaicin exposure; for dyspnea incidence: i.v. 20 min prior to capsaicin aerosol (0.001%)", "protocol": "In vivo experiments were performed using male Duncan Hartley guinea pigs (250-350g). Changes in conscious breathing patterns were monitored in four animals simultaneously using modified whole body plethysmography consisting of four small plexiglass boxes each connected to a reference box via Validyne DP 45-16 differential pressure transducers. The 4 boxes were equipped with an air supply line (also used for aerosol delivery) and an exhaust air line. Supply and exhaust lines were of the same length and narrow bore and arose from a common supply chamber and vented to a common exhaust chamber. This system was used to ensure that fluctuations in supply air and atmospheric pressure would remain in phase and be eliminated from the net signal by the differential pressure transducers. The analog pressure signals were digitalized via a Data Translation DT2821 A to D board. Data were collected at a rate of 100 samples/second/animal. Each cycle of pressure change was analyzed using the following parameters: rising and falling slope determined between minimum and maximum pressures, the ratio of rising over falling slope, and the magnitude of the change between initial trough pressure and peak cycle pressure. Using these values (and observing the animals) the pressure cycles were characterized into normal breaths, forced exhalations (apparent by abdominal heaving), significant respiratory events (SREs; usually coughs, less often sneezes or gasps which were characterized by transient, extremely large pressure increases which were distinguishable from noise) and movement/noise with a PCAT 286 running a System V UNIX operating system. Dyspnea was defined as a significant, sustained increase in plethysmograph pressure which was associated with an observable shift to labored breathing in the animal.\nDuring the course of a typical experiment in which airway responsiveness to various bronchoconstricting agents was examined, aerosols were delivered for 19 min (0.33 ml/min) using a DeVilbiss Ultraneb 99 ultrasonic nebulizer and animals monitored during this time. Prior to nebulization, 1 min of resting breathing was collected to establish a baseline pressure. […] The vehicle for nebulization of all bronchoconstrictive agents was phosphate buffered saline (pH 7.4) which elicited no respiratory effects itself. Putative tachykinin antagonists were administered either (i.v.) 20 min prior to onset of aerosol exposure or orally 1 hour prior to onset (to guinea pigs after an overnight fast).\nCapsaicin aerosol is known to promote release of the tachykinins SP and NKA from sensory nerves in the airways of guinea pigs which may then act upon NK1 and NK2 receptors, respectively to elicit respiratory effects."}
{"smiles": "COc1cc(C(=O)N2CCC(CCN3CCC(C(N)=O)(c4ccccc4)CC3)(c3ccc(Cl)c(Cl)c3)C2)cc(OC)c1OC.Cl", "note": "(single isomer, unassigned; (+)) [Example 20A, (+)-1-[2-[3-(3,4-dichloro-phenyl)-1-(3,4,5-trimethoxy-benzoyl)-pyrrolidin-3-yl]-ethyl]-4-phenyl-piperidine-4-carboxylic acid amide hydrochloride]", "values": [{"measurement": "dyspnea onset", "setting": "1 mg/kg i.v.", "value": "331 ± 22", "unit": "s"}, {"measurement": "maximum pressure increase", "setting": "1 mg/kg i.v.", "value": "1.0 ± 0.1", "unit": "mmH2 O"}, {"measurement": "SRE number (coughs/gasps)", "setting": "1 mg/kg i.v.", "value": "9.9 ± 2.7"}, {"measurement": "dyspnea incidence", "setting": "1 mg/kg", "value": 77.8, "unit": "%"}, {"measurement": "dyspnea onset", "setting": "2.5 mg/kg i.v.", "value": "426 ± 57", "unit": "s"}, {"measurement": "maximum pressure increase", "setting": "2.5 mg/kg i.v.", "value": "0.6 ± 0.1", "unit": "mmH2 O"}, {"measurement": "SRE number (coughs/gasps)", "setting": "2.5 mg/kg i.v.", "value": "8.3 ± 1.6"}, {"measurement": "dyspnea incidence", "setting": "2.5 mg/kg", "value": 100, "unit": "%"}, {"measurement": "dyspnea onset", "setting": "5 mg/kg i.v.", "value": "597 ± 186", "unit": "s"}, {"measurement": "maximum pressure increase", "setting": "5 mg/kg i.v.", "value": "0.8 ± 0.06", "unit": "mmH2 O"}, {"measurement": "SRE number (coughs/gasps)", "setting": "5 mg/kg i.v.", "value": "4.4 ± 1.9"}, {"measurement": "dyspnea incidence", "setting": "5 mg/kg", "value": 44.4, "unit": "%"}, {"measurement": "dyspnea onset", "setting": "10 mg/kg i.v.", "value": "592 ± 71", "unit": "s"}, {"measurement": "maximum pressure increase", "setting": "10 mg/kg i.v.", "value": "0.8 ± 0.1", "unit": "mmH2 O"}, {"measurement": "SRE number (coughs/gasps)", "setting": "10 mg/kg i.v.", "value": "3.3 ± 1.1"}, {"measurement": "dyspnea incidence", "setting": "10 mg/kg", "value": 55.6, "unit": "%"}, {"measurement": "effect on capsaicin-induced respiratory effects (in words)", "setting": "intravenous", "value": "attenuate capsaicin-induced respiratory effects"}]}
